Common to all, as to details: Homo sapiens
The test system of assay [1] is MT4. The experiment in a line: Inhibition of proliferation of MT-4 cells.
Assay [2] deals with HuT78. The experiment in a line: Inhibition of proliferation of HUT78 cells.
The test system of assay [3] is MT4. Briefly: Compound was evaluated for inhibition of proliferation of MT-4 cells (in vitro).
In assay [4] the test system is HuT78. Briefly: Compound was evaluated for inhibition of proliferation of HUT78 cells (in vitro).
Assay [5] has as its system MT4. The experiment in a line: Compound was evaluated for inhibition of proliferation of MT-4 cells(in vitro).

The structures appear in SMILES notation. Values after ≈ are worked out from the molar mass of the structure shown.

As for `CC/C(=N\N=C(/S)N1CCCCCC1)c1cccnn1`, the 50% inhibitory concentration (IC50) in assay [1] turned out to be 0.039 µg/mL (≈ 0.134 µM); in assay [2], 0.073 µg/mL (≈ 0.25 µM).
Take `CC(N/N=C(\S)N1CCCCCC1)c1cccnn1` (stereo not drawn): the IC50 is 0.028 µg/mL (≈ 0.1 µM) in assay [1] and 0.04 µg/mL (≈ 0.143 µM) in assay [2].
With `C/C(=N\N=C(/S)N1CC2CCC(CC2)C1)c1ccncn1`, the IC50 in assay [1] stood at 0.047 µg/mL (≈ 0.155 µM); in assay [2] it was 0.036 µg/mL (≈ 0.119 µM).
On to `C/C(=N\N=C(/S)N(C)C)c1cccnn1`, for which the 50% inhibitory concentration (IC50) in assay [1] worked out at 0.1 µg/mL (≈ 0.448 µM); in assay [2] it was 0.079 µg/mL (≈ 0.354 µM).
On to `C/C(=N\NC(=S)N(C)C)c1cnccn1`, for which the IC50 in assay [1] was determined as 0.00045 µg/mL (≈ 0.00202 µM); in assay [2] it was 0.00062 µg/mL (≈ 0.00278 µM).
For `CCC/C(=N\N=C(/S)N1CC2CCC(CC2)C1)c1cccnn1`, in that order: 0.084 µg/mL (≈ 0.253 µM) and 0.062 µg/mL (≈ 0.187 µM).
Turning to `C/C(=N\N=C(/S)NCc1ccccn1)c1cccnn1`, the results for the half-inhibitory concentration (IC50) in assay [1] and in assay [2] were 0.87 µg/mL (≈ 3.04 µM) and 2.01 µg/mL (≈ 7.02 µM), respectively.
The like results for `C/C(=N\N=C(/S)NCc1ccccn1)c1ccncn1` were, in that order, 0.018 µg/mL (≈ 0.0629 µM) and 0.24 µg/mL (≈ 0.838 µM).
Take `C/N=C(\S)N/N=C/c1cccnn1`: the concentration for half-maximal inhibition (IC50) in assay [1] is 2.42 µg/mL (≈ 12.4 µM); in assay [2], 4.52 µg/mL (≈ 23.1 µM).
For `C/C(=N\N=C(/S)N1CCCCCC1)c1ccc(C)nn1`, in that order: 0.028 µg/mL (≈ 0.0961 µM) and 0.054 µg/mL (≈ 0.185 µM).
For `C/N=C(\S)N/N=C(\C)c1cccnn1`, in that order: 1.62 µg/mL (≈ 7.74 µM) and 1.86 µg/mL (≈ 8.89 µM).
The like results for `C/C(=N\N=C(/S)N(C)C)c1ccncn1` were, in that order, 0.00049 µg/mL (≈ 0.00219 µM) and 0.00065 µg/mL (≈ 0.00291 µM).
`CC(N/N=C(\S)N1CCCC1)c1cccnn1` (stereo not drawn): the concentration for half-maximal inhibition (IC50) in assay [1] came to 0.016 µg/mL (≈ 0.0637 µM); in assay [2] it was 0.068 µg/mL (≈ 0.271 µM).
For `C/C(=N\N=C(\N)S)c1ccncn1`, the IC50 in assay [1] worked out at 0.14 µg/mL (≈ 0.717 µM); in assay [2], 0.82 µg/mL (≈ 4.2 µM).
On to `C/C(=N\N=C(/S)NCc1ccccn1)c1cnccn1`, for which the figures for the 50% inhibitory concentration (IC50) in assay [1] and in assay [2] were 0.041 µg/mL (≈ 0.143 µM) and 1.11 µg/mL (≈ 3.88 µM), respectively.
The like results for `C/N=C(\S)N/N=C(\C)c1cnccn1` were, in that order, 0.46 µg/mL (≈ 2.2 µM) and 0.88 µg/mL (≈ 4.2 µM).
Regarding `C/C(=N\N=C(\N)S)c1cccnn1`, the IC50 in assay [1] is 1.13 µg/mL (≈ 5.79 µM); in assay [2], 0.99 µg/mL (≈ 5.07 µM).
For the compound `C/N=C(\S)N/N=C(\C)c1ccncn1`, the IC50 in assay [1] was 0.02 µg/mL (≈ 0.0956 µM); in assay [2], 0.022 µg/mL (≈ 0.105 µM).
Regarding `C=CCN/C(S)=N/N=C(\C)c1ccc(C)nn1`, the IC50 in assay [1] stood at 1.47 µg/mL (≈ 5.9 µM); in assay [2] it was 2.81 µg/mL (≈ 11.3 µM).
As for `C=CCN/C(S)=N/N=C(\C)c1cccnn1`, the half-maximal inhibitory concentration (IC50) amounted to 1.28 µg/mL (≈ 5.44 µM) in assay [1] and 2.65 µg/mL (≈ 11.3 µM) in assay [2].
Turning to `C=CCNC(=S)N/N=C/c1cccnn1`, the IC50 in assay [1] amounted to 3.1 µg/mL (≈ 14 µM); in assay [2], 6.22 µg/mL (≈ 28.1 µM).
For `C/C(=N\NC(=S)N1CCCC1)c1cnccn1`, in that order: 0.00019 µg/mL (≈ 0.000762 µM) and 0.00049 µg/mL (≈ 0.00197 µM).
Take `C/C(=N\N=C(/S)N1CCCC1)c1ccncn1`: the IC50 in assay [1] came to 0.00026 µg/mL (≈ 0.00104 µM); in assay [2], 0.00031 µg/mL (≈ 0.00124 µM).
Consider `CC(N/N=C(\S)N1CC2CCC(CC2)C1)c1cccnn1` (stereo not drawn), for which the half-maximal inhibitory concentration (IC50) in assay [1] came to 0.034 µg/mL (≈ 0.111 µM); in assay [2], 0.038 µg/mL (≈ 0.124 µM).
On to `C=CCN/C(S)=N/N=C(\C)c1ccncn1`, for which the IC50 was 0.081 µg/mL (≈ 0.344 µM) in assay [1] and 0.031 µg/mL (≈ 0.132 µM) in assay [2].
With `C/C(=N\N=C(\N)S)c1ccc(C)nn1`, the half-inhibitory concentration (IC50) in assay [1] amounted to 1.49 µg/mL (≈ 7.12 µM); in assay [2], 1.58 µg/mL (≈ 7.55 µM).
With `C/N=C(\S)N/N=C(\C)c1ccc(C)nn1`, the IC50 in assay [1] was determined as 1.52 µg/mL (≈ 6.81 µM); in assay [2], 2.15 µg/mL (≈ 9.63 µM).
Take `S=C(NCc1ccccn1)N/N=C/c1cccnn1`: the figures for the IC50 in assay [1] and in assay [2] were 3.9 µg/mL (≈ 14.3 µM) and 5.62 µg/mL (≈ 20.6 µM), respectively.
Take `C/C(=N\N=C(/S)N1CC2CCC(CC2)C1)c1cnccn1`: the IC50 in assay [1] was 0.0054 µg/mL (≈ 0.0178 µM); in assay [2] it was 0.0069 µg/mL (≈ 0.0227 µM).
The like results for `CC(N/N=C(\S)N1CCCCC1)c1cccnn1` (stereo not drawn) were, in that order, 0.033 µg/mL (≈ 0.124 µM) and 0.074 µg/mL (≈ 0.279 µM).
On to `CN(C)/C(S)=N/N=C/c1cccnn1`, for which the IC50 in assay [1] and in assay [2] was 0.11 µg/mL (≈ 0.526 µM) throughout.
With `C=CCN/C(S)=N/N=C(\C)c1cnccn1`, the half-maximal inhibitory concentration (IC50) in assay [1] came to 0.014 µg/mL (≈ 0.0595 µM); in assay [2], 0.036 µg/mL (≈ 0.153 µM).
Take `C/C(=N\NC(=S)N(C)C)c1ccccn1`: the IC50 in assay [3] turned out to be 0.00011 µg/mL (≈ 0.000495 µM); in assay [4] it was 0.00055 µg/mL (≈ 0.00247 µM).
On to `C/C(=N\N=C(/S)N(C)C)c1ccc(C)nn1`, for which the IC50 was 0.12 µg/mL (≈ 0.506 µM) in assay [1] and 0.088 µg/mL (≈ 0.371 µM) in assay [2].
`CCC/C(=N\N=C(/S)N1CCCCCC1)c1cccnn1`: the concentration for half-maximal inhibition (IC50) in assay [1] came to 0.088 µg/mL (≈ 0.288 µM); in assay [2], 0.098 µg/mL (≈ 0.321 µM).
For `CC/C(=N\N=C(/S)N1CCCCC1)c1cccnn1`, the results for the half-inhibitory concentration (IC50) in assay [1] and in assay [2] were 0.03 µg/mL (≈ 0.108 µM) and 0.071 µg/mL (≈ 0.256 µM), respectively.
The like results for `C/C(=N\N=C(/S)N1CCCCC1)c1ccc(C)nn1` were, in that order, 0.019 µg/mL (≈ 0.0685 µM) and 0.055 µg/mL (≈ 0.198 µM).
As to `C/C(=N\N=C(/S)NCc1ccccn1)c1ccc(C)nn1`, the IC50 in assay [1] is 1.64 µg/mL (≈ 5.46 µM); in assay [2] it was 2.82 µg/mL (≈ 9.39 µM).
For `CCC/C(=N\N=C(/S)N1CCCCC1)c1cccnn1`, in that order: 0.0012 µg/mL (≈ 0.00412 µM) and 0.0023 µg/mL (≈ 0.00789 µM).
With `C/C(=N\N=C(/S)N1CCCCCC1)c1cnccn1`, the half-maximal inhibitory concentration (IC50) in assay [1] was determined as 0.0059 µg/mL (≈ 0.0213 µM); in assay [2], 0.0083 µg/mL (≈ 0.0299 µM).
Take `C/C(=N\N=C(\N)S)c1cnccn1`: the IC50 in assay [1] was 0.95 µg/mL (≈ 4.87 µM); in assay [2], 1.39 µg/mL (≈ 7.12 µM).
The like results for `CC/C(=N\N=C(/S)N1CCCC1)c1cccnn1` were, in that order, 0.016 µg/mL (≈ 0.0608 µM) and 0.052 µg/mL (≈ 0.197 µM).
Consider `C/C(=N\N=C(/S)N1CCCCC1)c1ccncn1`, for which the values for the IC50 in assay [1] and in assay [2] were 0.0013 µg/mL (≈ 0.00494 µM) and 0.0037 µg/mL (≈ 0.014 µM), respectively.
`CCC/C(=N\N=C(/S)N1CCCC1)c1cccnn1`: the IC50 in assay [1] worked out at 0.036 µg/mL (≈ 0.13 µM); in assay [2], 0.068 µg/mL (≈ 0.245 µM).
Regarding `C/C(=N\N=C(/S)N1CCCCCC1)c1ccncn1`, the IC50 in assay [1] came to 0.016 µg/mL (≈ 0.0577 µM); in assay [2], 0.0022 µg/mL (≈ 0.00793 µM).
In the case of `C/C(=N\N=C(/S)N1CCCC1)c1ccc(C)nn1`, the results for the IC50 in assay [1] and in assay [2] were 0.036 µg/mL (≈ 0.137 µM) and 0.073 µg/mL (≈ 0.277 µM), respectively.
As for `C/C(=N\NC(=S)N1CCCCC1)c1cnccn1`, the IC50 is 0.00055 µg/mL (≈ 0.00209 µM) in assay [1] and 0.00052 µg/mL (≈ 0.00197 µM) in assay [2].
Turning to `N/C(S)=N/N=C/c1cccnn1`, the half-inhibitory concentration (IC50) was 2.18 µg/mL (≈ 12 µM) in assay [1] and 4.21 µg/mL (≈ 23.2 µM) in assay [2].
Regarding `C/C(=N\NC(N)=S)c1ccccn1`, the IC50 came out at 0.049 µg/mL (≈ 0.252 µM) in assay [5] and 0.35 µg/mL (≈ 1.8 µM) in assay [4].

As usually defined, the IC50 is the concentration that gives 50% inhibition. Low readings indicate inhibition by little substance, high ones a need for much substance.

The values are drawn from ChEMBL document CHEMBL1125544, “Novel thiosemicarbazones derived from formyl- and acyldiazines: synthesis, effects on cell proliferation, and synergism with antiviral agents” (1992).
